Molecular target: human NaV 1.8 (Homo sapiens, UniProt Q9Y5Y9)
Assay: E-VIPR assay detecting and measuring NaV inhibition properties
Type: cell-based
Details: HEK cells expressing truncated human NaV 1.8; no human serum; read-out: IC50 in the E-VIPR Assay
How it was run: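 Membrane potential was followed by coumarin/oxonol FRET during electrical field stimulation of matrigel-seeded HEK cells carrying truncated human NaV1.8 plus KIR2.1. Dosing used 11 points, 3-fold steps, top 300 nM final, 0.625% DMSO, with or without 25% human serum.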

human NaV 1.8, sequence (Q9Y5Y9 126-399 limits assumed): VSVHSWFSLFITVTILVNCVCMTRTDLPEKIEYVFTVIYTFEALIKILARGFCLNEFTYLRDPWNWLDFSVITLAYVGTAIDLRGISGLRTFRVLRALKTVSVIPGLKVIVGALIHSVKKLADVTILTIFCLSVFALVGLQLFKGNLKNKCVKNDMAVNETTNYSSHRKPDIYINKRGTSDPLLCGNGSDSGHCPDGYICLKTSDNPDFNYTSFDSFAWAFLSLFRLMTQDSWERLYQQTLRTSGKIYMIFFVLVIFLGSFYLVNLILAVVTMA
human NaV 1.8, sequence (Q9Y5Y9 660-890 limits assumed): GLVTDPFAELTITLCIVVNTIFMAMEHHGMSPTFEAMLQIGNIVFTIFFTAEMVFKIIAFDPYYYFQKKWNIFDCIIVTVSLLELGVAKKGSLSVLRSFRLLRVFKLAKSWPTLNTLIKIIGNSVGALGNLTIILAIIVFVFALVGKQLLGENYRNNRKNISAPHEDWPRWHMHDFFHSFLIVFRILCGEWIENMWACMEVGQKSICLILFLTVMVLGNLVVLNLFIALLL
human NaV 1.8, sequence (Q9Y5Y9 1148-1722 limits assumed): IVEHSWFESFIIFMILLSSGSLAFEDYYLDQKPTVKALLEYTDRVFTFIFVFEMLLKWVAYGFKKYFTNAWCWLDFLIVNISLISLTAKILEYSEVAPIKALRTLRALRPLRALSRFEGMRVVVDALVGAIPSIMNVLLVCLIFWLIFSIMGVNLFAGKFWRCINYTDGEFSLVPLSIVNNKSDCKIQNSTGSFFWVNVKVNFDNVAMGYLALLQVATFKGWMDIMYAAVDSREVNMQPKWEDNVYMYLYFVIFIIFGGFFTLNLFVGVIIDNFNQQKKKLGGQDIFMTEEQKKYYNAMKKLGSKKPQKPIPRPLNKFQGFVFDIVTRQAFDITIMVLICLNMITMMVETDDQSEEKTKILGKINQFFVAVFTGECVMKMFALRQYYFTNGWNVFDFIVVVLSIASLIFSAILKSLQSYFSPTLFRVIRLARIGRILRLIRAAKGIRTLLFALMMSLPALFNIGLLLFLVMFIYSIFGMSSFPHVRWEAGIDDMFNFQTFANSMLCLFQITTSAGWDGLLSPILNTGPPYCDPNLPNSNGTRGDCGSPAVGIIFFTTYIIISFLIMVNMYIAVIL

Row | IC50 [nM] | Structure (SMILES)
1 | < 10 | Cc1nn(C(F)F)cc1NC(=O)[C@@H]1O[C@@](C)(C(F)(F)F)[C@@H](C)[C@H]1c1ccc(F)c(F)c1OCc1cn[nH]c1 [Compound 599, (2R,3S,4S,5R)-N-[1-(difluoromethyl)-3-methyl-pyrazol-4-yl]-3-[3,4-difluoro-2-(1H-pyrazol-4-ylmethoxy)phenyl]-4,5-dimethyl-5-(trifluoromethyl)tetrahydrofuran-2-carboxamide]
2 | < 10 | C=C(CO)COc1c([C@H]2[C@H](C(=O)Nc3cn(C(F)F)nc3C)O[C@@](C)(C(F)(F)F)[C@H]2C)ccc(F)c1F [Compound 601, (2R,3S,4S,5R)-3-[3,4-difluoro-2-[2-(hydroxymethyl)allyloxy]phenyl]-N-[1-(difluoromethyl)-3-methyl-pyrazol-4-yl]-4,5-dimethyl-5-(trifluoromethyl)tetrahydrofuran-2-carboxamide]
3 | < 10 | COC(=O)COc1c([C@H]2[C@H](C(=O)Nc3cn(C(F)F)nc3C)O[C@@](C)(C(F)(F)F)[C@H]2C)ccc(F)c1F [Compound 602, methyl 2-[6-[(2R,3S,4S,5R)-2-[[1-(difluoromethyl)-3-methyl-pyrazol-4-yl]carbamoyl]-4,5-dimethyl-5-(trifluoromethyl)tetrahydrofuran-3-yl]-2,3-difluoro-phenoxy]acetate]
4 | ≥ 1000 | Cc1nn(C(F)F)cc1NC(=O)[C@@H]1O[C@@](C)(C(F)(F)F)[C@@H](C)[C@H]1c1ccc(F)c(F)c1OCC(=O)O [Compound 603, 2-(6-((2R,3S,4S,5R)-2-((1-(difluoromethyl)-3-methyl-1H-pyrazol-4-yl)carbamoyl)-4,5-dimethyl-5-(trifluoromethyl)tetrahydrofuran-3-yl)-2,3-difluorophenoxy)acetic acid]
5 | 100 to 1000 | Cc1nn(C(F)F)cc1NC(=O)[C@@H]1O[C@@](C)(C(F)(F)F)[C@@H](C)[C@H]1c1ccc(F)c(F)c1OCC(=O)N(C)O [Compound 604, (2R,3S,4S,5R)-3-(3,4-difluoro-2-(2-(hydroxy(methyl)amino)-2-oxoethoxy)phenyl)-N-(1-(difluoromethyl)-3-methyl-1H-pyrazol-4-yl)-4,5-dimethyl-5-(trifluoromethyl)tetrahydrofuran-2-carboxamide]
6 | 10 to 100 | Cc1nn(C(F)F)cc1NC(=O)[C@@H]1O[C@@](C)(C(F)(F)F)[C@@H](C)[C@H]1c1ccc(F)c(F)c1OCC(N)=O [Compound 605, (2R,3S,4S,5R)-3-(2-(2-amino-2-oxoethoxy)-3,4-difluorophenyl)-N-(1-(difluoromethyl)-3-methyl-1H-pyrazol-4-yl)-4,5-dimethyl-5-(trifluoromethyl)tetrahydrofuran-2-carboxamide]
7 | 10 to 100 | CNC(=O)COc1c([C@H]2[C@H](C(=O)Nc3cn(C(F)F)nc3C)O[C@@](C)(C(F)(F)F)[C@H]2C)ccc(F)c1F [Compound 607, (2R,3S,4S,5R)-3-(3,4-difluoro-2-(2-(methylamino)-2-oxoethoxy)phenyl)-N-(1-(difluoromethyl)-3-methyl-1H-pyrazol-4-yl)-4,5-dimethyl-5-(trifluoromethyl)tetrahydrofuran-2-carboxamide]
8 | 10 to 100 | C[C@H](CO)COc1c([C@H]2[C@H](C(=O)Nc3ccc(C(N)=O)nc3)O[C@@](C)(C(F)(F)F)[C@H]2C)ccc(F)c1F [Compound 614, 5-((2R,3S,4S,5R)-3-(3,4-difluoro-2-((R)-3-hydroxy-2-methylpropoxy)phenyl)-4,5-dimethyl-5-(trifluoromethyl)tetrahydrofuran-2-carboxamido)picolinamide]
9 | 10 to 100 | C[C@H]1[C@@H](c2ccc(F)c(F)c2OCCO)[C@H](C(=O)Nc2ccc(C(N)=O)nc2)O[C@@]1(C)C(F)(F)F [Compound 615, 5-((2R,3S,4S,5R)-3-(3,4-difluoro-2-(2-hydroxyethoxy)phenyl)-4,5-dimethyl-5-(trifluoromethyl)tetrahydrofuran-2-carboxamido)picolinamide]
10 | 100 to 1000 | C[C@@H](CO)COc1c([C@H]2[C@H](C(=O)Nc3ccc(C(N)=O)nc3)O[C@@](C)(C(F)(F)F)[C@H]2C)ccc(F)c1F [Compound 616, 5-((2R,3S,4S,5R)-3-(3,4-difluoro-2-((S)-3-hydroxy-2-methylpropoxy)phenyl)-4,5-dimethyl-5-(trifluoromethyl)tetrahydrofuran-2-carboxamido)picolinamide]
11 | 10 to 100 | C[C@H]1[C@@H](c2ccc(F)c(F)c2OCCN2CC3(COC3)C2)[C@H](C(=O)Nc2ccnc(CO)c2)O[C@@]1(C)C(F)(F)F [Compound 618, (2R,3S,4S,5R)-3-(2-(2-(2-oxa-6-azaspiro[3.3]heptan-6-yl)ethoxy)-3,4-difluorophenyl)-N-(2-(hydroxymethyl)pyridin-4-yl)-4,5-dimethyl-5-(trifluoromethyl)tetrahydrofuran-2-carboxamide]
12 | 10 to 100 | Cc1nocc1NC(=O)[C@@H]1O[C@@](C)(C(F)(F)F)[C@@H](C)[C@H]1c1ccc(F)c(F)c1OCCN1CC2(COC2)C1 [Compound 619, (2R,3S,4S,5R)-3-(2-(2-(2-oxa-6-azaspiro[3.3]heptan-6-yl)ethoxy)-3,4-difluorophenyl)-4,5-dimethyl-N-(3-methylisoxazol-4-yl)-5-(trifluoromethyl)tetrahydrofuran-2-carboxamide]
13 | 10 to 100 | C[C@H]1[C@@H](c2ccc(F)c(F)c2OCCN2CC3(COC3)C2)[C@H](C(=O)Nc2ccc3nncn3c2)O[C@@]1(C)C(F)(F)F [Compound 620, (2R,3S,4S,5R)-3-(2-(2-(2-oxa-6-azaspiro[3.3]heptan-6-yl)ethoxy)-3,4-difluorophenyl)-N-([1,2,4]triazolo[4,3-a]pyridin-6-yl)-4,5-dimethyl-5-(trifluoromethyl)tetrahydrofuran-2-carboxamide]
14 | < 10 | C[C@H]1[C@@H](c2ccc(F)c(F)c2OCC2COC2)[C@H](C(=O)Nc2ccc3cnnn3c2)O[C@@]1(C)C(F)(F)F [Compound 621, (2R,3S,4S,5R)-3-[3,4-difluoro-2-(oxetan-3-ylmethoxy)phenyl]-4,5-dimethyl-N-(triazolo[1,5-a]pyridin-6-yl)-5-(trifluoromethyl)tetrahydrofuran-2-carboxamide]
15 | < 10 | C=C(CO)COc1c([C@H]2[C@H](C(=O)Nc3ccc4cnnn4c3)O[C@@](C)(C(F)(F)F)[C@H]2C)ccc(F)c1F [Compound 622, (2R,3S,4S,5R)-3-[3,4-difluoro-2-[2-(hydroxymethyl)allyloxy]phenyl]-4,5-dimethyl-N-(triazolo[1,5-a]pyridin-6-yl)-5-(trifluoromethyl)tetrahydrofuran-2-carboxamide]
16 | 10 to 100 | Cc1nocc1NC(=O)[C@@H]1O[C@@](C)(C(F)(F)F)[C@@H](C)[C@H]1c1ccc(F)c(F)c1OC[C@H](C)N1CC2(COC2)C1 [Compound 623, (2R,3S,4S,5R)-3-[3,4-difluoro-2-[(2S)-2-(2-oxa-6-azaspiro[3.3]heptan-6-yl)propoxy]phenyl]-4,5-dimethyl-N-(3-methylisoxazol-4-yl)-5-(trifluoromethyl)tetrahydrofuran-2-carboxamide]
17 | 100 to 1000 | Cc1nocc1NC(=O)[C@@H]1O[C@@](C)(C(F)(F)F)[C@@H](C)[C@H]1c1ccc(F)c(F)c1OC[C@@H](C)N1CC2(COC2)C1 [Compound 624, (2R,3S,4S,5R)-3-[3,4-difluoro-2-[(2R)-2-(2-oxa-6-azaspiro[3.3]heptan-6-yl)propoxy]phenyl]-4,5-dimethyl-N-(3-methylisoxazol-4-yl)-5-(trifluoromethyl)tetrahydrofuran-2-carboxamide]
18 | < 10 | Cc1nocc1NC(=O)[C@@H]1O[C@@](C)(C(F)(F)F)[C@@H](C)[C@H]1c1ccc(F)c(F)c1OCCN1CC(F)C1 [Compound 625, (2R,3S,4S,5R)-3-(3,4-difluoro-2-(2-(3-fluoroazetidin-1-yl)ethoxy)phenyl)-4,5-dimethyl-N-(3-methylisoxazol-4-yl)-5-(trifluoromethyl)tetrahydrofuran-2-carboxamide]
19 | 100 to 1000 | Cc1nocc1NC(=O)[C@@H]1O[C@@](C)(C(F)(F)F)[C@@H](C)[C@H]1c1ccc(F)c(F)c1OCCN1CC(C)(O)C1 [Compound 626, (2R,3S,4S,5R)-3-(3,4-difluoro-2-(2-(3-hydroxy-3-methylazetidin-1-yl)ethoxy)phenyl)-4,5-dimethyl-N-(3-methylisoxazol-4-yl)-5-(trifluoromethyl)tetrahydrofuran-2-carboxamide]
20 | 10 to 100 | COC1CN(CCOc2c([C@H]3[C@H](C(=O)Nc4conc4C)O[C@@](C)(C(F)(F)F)[C@H]3C)ccc(F)c2F)C1 [Compound 627, (2R,3S,4S,5R)-3-(3,4-difluoro-2-(2-(3-methoxyazetidin-1-yl)ethoxy)phenyl)-4,5-dimethyl-N-(3-methylisoxazol-4-yl)-5-(trifluoromethyl)tetrahydrofuran-2-carboxamide]
21 | 10 to 100 | Cc1nocc1NC(=O)[C@@H]1O[C@@](C)(C(F)(F)F)[C@@H](C)[C@H]1c1ccc(F)c(F)c1OCCN1CC(OC(F)F)C1 [Compound 628, (2R,3S,4S,5R)-3-(2-(2-(3-(difluoromethoxy)azetidin-1-yl)ethoxy)-3,4-difluorophenyl)-4,5-dimethyl-N-(3-methylisoxazol-4-yl)-5-(trifluoromethyl)tetrahydrofuran-2-carboxamide]
22 | 10 to 100 | Cc1nocc1NC(=O)[C@@H]1O[C@@](C)(C(F)(F)F)[C@@H](C)[C@H]1c1ccc(F)c(F)c1OCCN1CC(C(F)F)C1 [Compound 629, (2R,3S,4S,5R)-3-(2-(2-(3-(difluoromethyl)azetidin-1-yl)ethoxy)-3,4-difluorophenyl)-4,5-dimethyl-N-(3-methylisoxazol-4-yl)-5-(trifluoromethyl)tetrahydrofuran-2-carboxamide]

Row | Structure (SMILES) | IC50 [nM]
23 | Cc1nn(C(F)F)cc1NC(=O)[C@@H]1O[C@@](C)(C(F)(F)F)[C@@H](C)[C@H]1c1ccc(F)c(F)c1OC1CC(O)C1 (stereo partly drawn) [Compound 600, (2R,3S,4S,5R)-3-[3,4-difluoro-2-(3-hydroxycyclobutoxy)phenyl]-N-[1-(difluoromethyl)-3-methyl-pyrazol-4-yl]-4,5-dimethyl-5-(trifluoromethyl)tetrahydrofuran-2-carboxamide] | 10 to 100

Source: patent US20240368135A1 (VERTEX PHARMACEUTICALS INCORPORATED, priority 2021, published 2024)
